Measured values: PMC10215355, “Chemical Composition of the Cinnamomum malabatrum Leaf Essential Oil and Analysis of Its Antioxidant, Enzyme Inhibitory and Antibacterial Activities” (Antibiotics, 2023)
≈ marks a conversion by molar mass, not a printed value.

Assays:
Staphylococcus aureus [1] = assay: Minimum inhibitory concentration (96-well, TTC); assay type: cell-based
Salmonella enterica [2] = assay: Minimum inhibitory concentration (96-well, TTC); assay type: cell-based
Excerpt: (§1) The bacteria were procured from Microbial Type Culture Collection and Gene Bank (MTCC), Chandigarh and maintained under standard conditions as prescribed by Bonnet, et al.. The bacterial strains used include Escherichia coli, Pseudomonas aeruginosa, Staphylococcus aureus, Bacillus cereus, Streptococcus pyogenes and Salmonella enterica.
The determination of the MIC value was made according to the methods described by Campana, et al.. Before beginning, the density of the inoculum was spectrophotometrically set to 5 × 10^5 CFU/mL. From this, about 50 µL was transferred to individual wells of a 96-well plate containing different concentrations of C. malabatrum essential oil. Later, 2,3,5-triphenyltetrazolium chloride (10 µL) was added to each well; the pink color of the 2,3,5-triphenyltetrazolium chloride was lost in the absence of bacterial growth. The MIC value was considered as the lowest concentration without a detectable pink color.

Streptococcus pyogenes [3] = assay: Minimum inhibitory concentration (96-well, TTC); assay type: cell-based
Streptococcus pyogenes [4] = assay: Disc diffusion method; assay type: cell-based; settings: 8 mm disc, 10 μL oil, 24 h
Pseudomonas aeruginosa [5] = assay: Minimum inhibitory concentration (96-well, TTC); assay type: cell-based
Bacillus cereus [6] = assay: Minimum inhibitory concentration (96-well, TTC); assay type: cell-based
Escherichia coli [7] = assay: Minimum inhibitory concentration (96-well, TTC); assay type: cell-based
Staphylococcus aureus [8] = assay: Disc diffusion method; assay type: cell-based; settings: 8 mm disc, 10 μL oil, 24 h
Salmonella enterica [9] = assay: Disc diffusion method; assay type: cell-based; settings: 8 mm disc, 10 μL oil, 24 h
Excerpt: as §1
Initially, the bacteria cultured were completed in Luria-Bertani broth; for the antibacterial study, the inoculum of the bacteria was made on a Mueller Hinton Agar (MHA) agar plate (Himedia, Mumbai, Maharashtra, India) at a thickness of 5 mm. Later, a filter paper disc (8 mm in diameter) containing the leaf essential oil of C. malabatrum (10 μL) was placed in the agar plate at a distance of 50 mm. At the end of 24 h, the formation of the growth inhibition zone was estimated.

Escherichia coli [10] = assay: Disc diffusion method; assay type: cell-based; settings: 8 mm disc, 10 μL oil, 24 h
Bacillus cereus [11] = assay: Disc diffusion method; assay type: cell-based; settings: 8 mm disc, 10 μL oil, 24 h
α-amylase = assay: α-Amylase inhibition; assay type: biochemical; settings: 0–100 μg/mL
Pseudomonas aeruginosa [12] = assay: Disc diffusion method; assay type: cell-based; settings: 8 mm disc, 10 μL oil, 24 h
ABTS radical scavenging = settings: 0 to 100 µg/mL series
Protocol: (§2) The concentration of essential oil used was a different series from 0 to 100 μg/mL for each radical quenching assay. The quenching of DPPH radicals was analyzed using the methods of [70]. The ABTS radicals scavenging activity was analyzed according to the methods of Li et al.. The hydrogen peroxide quenching potential of the essential oil was following the methods of Munteanu and […] [72]. The ferric-reducing abilities of the essential oil were estimated according to the methods described by He et al.. The methods described by Okoh et al.

α-glucosidase = assay: α-Glucosidase inhibition; settings: 0–100 μg/mL
Protocol: The enzyme-inhibitory potential of the essential oil was evaluated by mixing different concentrations (0–100 μg/mL) against the respective enzymes and their substrates. The enzyme activities will be estimated in terms of the substrate utilized after incubation. The inhibition of α-amylase [75], α-glucosidase [76], aldose reductase [77] and sorbitol dehydrogenase [78] was carried out according to the methods previously described.

aldose reductase = aldose reductase (Homo sapiens, UniProt P15121); assay: Aldose reductase inhibition; assay type: biochemical; settings: 0–100 μg/mL
[13] = Ferric-reducing potential (FRAP); settings: 0 to 100 µg/mL series
Protocol: as §2

[14] = Lipid peroxidation inhibition (ex vivo); settings: 0 to 100 µg/mL series
Protocol: as §2

[15] = H2O2 radical scavenging (hydrogen peroxide quenching); settings: 0 to 100 µg/mL series
Protocol: as §2

sorbitol dehydrogenase = target: T1, sorbitol dehydrogenase (Homo sapiens, UniProt Q00796); assay: Sorbitol dehydrogenase inhibition; assay type: biochemical; settings: 0–100 μg/mL
T1 sequence (Q00796 1-357): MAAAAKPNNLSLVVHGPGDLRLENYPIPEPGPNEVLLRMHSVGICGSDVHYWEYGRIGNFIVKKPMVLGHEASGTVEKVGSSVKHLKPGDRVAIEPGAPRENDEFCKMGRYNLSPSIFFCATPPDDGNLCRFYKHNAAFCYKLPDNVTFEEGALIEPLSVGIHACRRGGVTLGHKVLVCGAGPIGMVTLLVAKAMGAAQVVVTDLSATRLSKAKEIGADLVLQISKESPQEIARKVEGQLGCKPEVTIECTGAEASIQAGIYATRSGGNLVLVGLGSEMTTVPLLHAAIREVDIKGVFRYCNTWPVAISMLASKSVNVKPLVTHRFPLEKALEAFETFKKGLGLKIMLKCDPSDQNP

DPPH radical scavenging = settings: 0 to 100 µg/mL series
Protocol: as §2

Row | Compound | MIC (Staphylococcus aureus [1]) | MIC (Salmonella enterica [2]) | MIC (Streptococcus pyogenes [3]) | Zone of Inhibition (Streptococcus pyogenes [4]) | MIC (Pseudomonas aeruginosa [5]) | MIC (Bacillus cereus [6]) | MIC (Escherichia coli [7]) | Zone of Inhibition (Staphylococcus aureus [8]) | Zone of Inhibition (Salmonella enterica [9]) | Zone of Inhibition (Escherichia coli [10]) | Zone of Inhibition (Bacillus cereus [11]) | α-Amylase inhibition IC50 (α-amylase) | ABTS radical scavenging IC50 (ABTS radical scavenging) | α-Glucosidase inhibition IC50 (α-glucosidase) | IC50 (aldose reductase) | Lipid peroxidation inhibition IC50 [14] | H2O2 radical scavenging IC50 [15] | IC50 (sorbitol dehydrogenase) | DPPH radical scavenging IC50 (DPPH radical scavenging) | also measured
1 | CNC(C)C1CCC(N)C(OC2C(N)CC(N)C(OC3OCC(C)(O)C(NC)C3O)C2O)O1 (stereo not shown) [GM, gentamicin] | 325 µg/mL (≈ 680 µM) | 167 µg/mL (≈ 350 µM) | 167 µg/mL (≈ 350 µM) | 19.2 ± 0.7 mm | 167 µg/mL (≈ 350 µM) | 325 µg/mL (≈ 680 µM) | 325 µg/mL (≈ 680 µM) | 18.5 ± 0.5 mm | 19.9 ± 0.3 mm | 21.3 ± 0.3 mm | 21.3 ± 0.5 mm |  |  |  |  |  |  |  |  | 
2 | C=CC(C)(O)CCC=C(C)C (stereo not shown) [Linalool] | 325 µg/mL (≈ 2110 µM) | 325 µg/mL (≈ 2110 µM) | 325 µg/mL (≈ 2110 µM) | 17.9 ± 0.1 mm | 325 ± 100 µg/mL (≈ 2110 µM) | 625 ± 100 µg/mL (≈ 4050 µM) | 625 ± 50 µg/mL (≈ 4050 µM) | 18.1 ± 0.2 mm | 16.8 ± 0.3 mm | 17.8 ± 0.1 mm | 17.6 ± 0.3 mm | 62.34 ± 2.91 µg/mL | 40.01 ± 1.33 µg/mL | 30.93 ± 3.41 µg/mL | 383 µM | 78.49 ± 3.07 µg/mL | 38.09 ± 2.45 µg/mL | 573 µM | 35.22 ± 0.11 µg/mL | Zone of Inhibition (Pseudomonas aeruginosa [12]): 19.3 ± 0.2 mm; Ferric-reducing potential IC50 [13]: 35.93 ± 0.24 µg/mL
3 | O=C1O[C@H]([C@@H](O)CO)C(O)=C1O [Ascorbic Acid] |  |  |  |  |  |  |  |  |  |  |  | 45.17 ± 2.36 µg/mL | 12.82 ± 0.40 µg/mL | 36.03 ± 1.98 µg/mL | 163 µM | 63.02 ± 0.33 µg/mL | 19.11 ± 0.26 µg/mL | 341 µM | 8.13 ± 0.09 µg/mL | 
